Laboratory results from patent US20100173930A1, “Certain Chemical Entities, Compositions and Methods” (priority 2006, published 2010).

What follows are compounds tested on SKM MYOFIBRIL (assay: SKM myofibril AC1.4 (ATPase, PK/LDH coupled enzyme system)). Conditions: screen at pCa=6.5.
Format: biochemical
Protocol: Assay components including the target protein complex, coupling enzymes and substrates, and ATP can then be added to the wells and the absorbance or fluorescence of each well of the plate can be measured with a plate reader.
In some embodiments, the method uses a 384 well plate format and a 25µL reaction volume. […] As will be appreciated by those in the art, the assay components are added in buffers and reagents. The incubation periods can be optimized to give adequate detection signals over the background. The assay can be done in real time giving the kinetics of ATP hydrolysis which increases the signal to noise ratio of the assay.
Just prior to screening, the actin, tropomyosin and troponin complex are mixed together in the desired ratio (e.g., 7:1:1) to achieve maximal calcium regulation of the actin filament. The screen is conducted at a pCa=6.5. This calcium concentration is in the physiological range during muscle contraction.
To measure the generation of ADP during the reaction, a pyruvate kinase/lactate dehydrogenase/NADH coupled enzyme system (PK/LDH) is added to the actin. The myosin is kept separately. The plates are read in real time so that kinetic curves are obtained. These compounds are in DMSO and were already spotted onto the bottoms of 384 well plates at 10 to 40 μg/ml final concentration.
Note: unit not given here.

Compound | SKM MYOFIBRIL AC1.4 (median)
Cc1ccc2nc(-c3ccccc3O)c(NCc3cccc(Cl)c3)n2n1 [2-(3-{[(3-chlorophenyl)methyl]amino}-6-methyl-4-hydroimidazo[1,2-e]pyridazin-2-yl)phenol] | 3.5753
Cc1ccn2c(NCc3ccc(F)cn3)c(-c3ccccc3O)nc2c1 [2-(3-{[(5-fluoro(2-pyridyl))methyl]amino}-7-methyl-4-hydroimidazo[1,2-a]pyridin-2-yl)phenol] | 7.3934
Oc1ccccc1-c1nc2cnccn2c1NCc1cccs1 [2-{3-[(2-thienylmethyl)amino]-4-hydroimidazo[1,2-a]pyrazin-2-yl}phenol] | 10.6577
CC(C)(O)c1ccc2nc(-c3ccccc3O)c(NCc3ccc(F)cc3)n2c1 [2-(3-{[(4-fluorophenyl)methyl]amino}-6-(1-hydroxy-isopropyl)-4-hydroimidazo[1,2-a]pyridin-2-yl)phenol] | 4.1299
CCc1ccn2c(NC3CCCC3)c(-c3ccc(O)cc3)nc2c1 [4-[3-(cyclopentylamino)-7-ethyl-4-hydroimidazo[1,2-a]pyridin-2-yl]phenol] | 7.5674
CCC(C)(C)Nc1c(-c2cc3cc(C)ccc3nc2O)nc2ccccn12 [3-{3-[(1,1-dimethylpropyl)amino](4-hydroimidazo[1,2-a]pyridin-2-yl)}-6-methylquinolin-2-ol] | 1.1087
CC(C)(O)c1ccc2nc(-c3ccccc3O)c(NCc3cccc(Cl)c3)n2c1 [2-(3-{[(3-chlorophenyl)methyl]amino}-6-(1-hydroxy-isopropyl)-4-hydroimidazo[1,2-a]pyridin-2-yl)phenol] | 2.0993
COc1cccc(CNc2c(-c3ccccc3O)nc3cc(C)ccn23)c1 [2-(3-{[(3-methoxyphenyl)methyl]amino}-7-methyl-4-hydroimidazo[1,2-a]pyridin-2-yl)phenol] | 10.2909
C[C@@H](Nc1c(-c2ccc(O)cc2)nc2ccccn12)C(C)(C)C [4-{3-[((1R)-1,2,2-trimethylpropyl)amino]-4-hydroimidazo[1,2-a]pyridin-2-yl}phenol] | 15.0489
Cc1ccc2nc(-c3ccccc3O)c(NCc3cccc(Cl)c3)n2c1 [2-(3-{[(3-chlorophenyl)methyl]amino}-6-methyl-4-hydroimidazo[1,2-a]pyridin-2-yl)phenol] | 1.1197
Cc1ccn2c(NCc3ccc(F)cc3)c(-c3ccccc3O)nc2c1 [2-(3-{[(4-fluorophenyl)methyl]amino}-7-methyl-4-hydroimidazo[1,2-a]pyridin-2-yl)phenol] | 1.1306
Oc1ccc(-c2nc3ccccn3c2NCc2ccc(Cl)cc2)cc1 [4-(3-{[(4-chlorophenyl)methyl]amino}-4-hydroimidazo[1,2-a]pyridin-2-yl)phenol] | 21.4002
COc1cccc(-c2nc3ccccn3c2NCc2cccc(Cl)c2)c1 [[(3-chlorophenyl)methyl][2-(3-methoxyphenyl)(4-hydroimidazo[1,2-a]pyridin-3-yl)]amine] | 35.6445
Cc1ccn2c(NC3CCCCC3)c(-c3ccoc3)nc2c1 [cyclohexyl(2-(3-furyl)-7-methyl(4-hydroimidazo[1,2-a]pyridin-3-yl))amine] | 30.5823
NC(=O)c1ccc2nc(-c3ccccc3O)c(NCc3cccc(Cl)c3)n2c1 [3-{[(3-chlorophenyl)methyl]amino}-2-(2-hydroxyphenyl)-4-hydroimidazo[1,2-a]pyridine-6-carboxamide] | 1.2788
Fc1cccc(-c2nc3ccccn3c2NCc2cccc(Cl)c2)c1 [[(3-chlorophenyl)methyl][2-(3-fluorophenyl)(4-hydroimidazo[1,2-a]pyridin-3-yl)]amine] | 43.8606
Oc1ccc(-c2nc3cccc(Br)n3c2NC2CCCCC2)cc1 [4-[5-bromo-3-(cyclohexylamino)-4-hydroimidazo[1,2-a]pyridin-2-yl]phenol] | 21.5453
CCc1ccc2nc(-c3ccc(O)cc3)c(NC3CCCCC3)n2c1 [4-[3-(cyclohexylamino)-6-ethyl-4-hydroimidazo[1,2-a]pyridin-2-yl]phenol] | 4.3136
c1csc(-c2nc3ccccn3c2NC2CCCCC2)c1 [cyclohexyl(2-(2-thienyl)(4-hydroimidazo[1,2-a]pyridin-3-yl))amine] | 16.7359
COC(=O)c1ccc2nc(-c3ccccc3O)c(NCc3cccc(Cl)c3)n2c1 [methyl 3-{[(3-chlorophenyl)methyl]amino}-2-(2-hydroxyphenyl)-4-hydroimidazo[1,2-a]pyridine-6-carboxylate] | 2.0174
COC(=O)c1ccc2nc(-c3ccccc3O)c(NCc3ccc(F)cc3)n2c1 [methyl 3-{[(4-fluorophenyl)methyl]amino}-2-(2-hydroxyphenyl)-4-hydroimidazo[1,2-a]pyridine-6-carboxylate] | 4.201
Cc1cccn2c(NC3CCCC3)c(-c3ccccc3O)nc12 [2-[3-(cyclopentylamino)-8-methyl-4-hydroimidazo[1,2-a]pyridin-2-yl]phenol] | 11.3023

Compound | SKM MYOFIBRIL AC1.4 (median)
Cc1ccn2c(NCc3ccc(F)cc3)c(-c3ccc(O)cc3)nc2c1 [4-(3-{[(4-fluorophenyl)methyl]amino}-7-methyl-4-hydroimidazo[1,2-a]pyridin-2-yl)phenol] | 44.5161
CN(C)CCNC(=O)c1ccc2nc(-c3ccccc3O)c(NCc3ccc(F)cc3)n2c1 [N-[2-(dimethylamino)ethyl](3-{[(4-fluorophenyl)methyl]amino}-2-(2-hydroxyphenyl)(4-hydroimidazo[1,2-a]pyridin-6-yl))carboxamide] | 4.4632
COc1ccc(-c2nc3ccc(C)cn3c2NC2CCCCC2)cc1O [5-[3-(cyclohexylamino)-6-methyl(4-hydroimidazo[1,2-a]pyridin-2-yl)]-2-methoxyphenol] | 6.0251
C[C@H](Nc1c(-c2ccc(O)cc2)nc2ccccn12)c1ccccc1 [4-{3-[((1S)-1-phenylethyl)amino]-4-hydroimidazo[1,2-a]pyridin-2-yl}phenol] | 23.0212
Oc1ccc(-c2nc3ccccn3c2NCc2ccc(F)cc2F)cc1 [4-(3-{[(2,4-difluorophenyl)methyl]amino}-4-hydroimidazo[1,2-a]pyridin-2-yl)phenol] | 37.1035
Cc1ccn2c(NC3CCCC3)c(-c3ccc(O)cc3)nc2c1 [4-[3-(cyclopentylamino)-7-methyl-4-hydroimidazo[1,2-a]pyridin-2-yl]phenol] | 4.685
CNC(=O)c1ccc2nc(-c3ccccc3O)c(NCc3ccc(F)cc3)n2c1 [(3-{[(4-fluorophenyl)methyl]amino}-2-(2-hydroxyphenyl)(4-hydroimidazo[1,2-a]pyridin-6-yl))-N-methylcarboxamide] | 1.8401
Oc1ccc(-c2nc3ccc(-c4ccccc4)cn3c2NCc2ccc(F)cc2)cc1 [4-(3-{[(4-fluorophenyl)methyl]amino}-6-phenyl-4-hydroimidazo[1,2-a]pyridin-2-yl)phenol] | 15.7257
CC(C)(C)CC(C)(C)Nc1c(-c2ccc(O)cc2)nc2ccccn12 [4-{3-[(1,1,3,3-tetramethylbutyl)amino]-4-hydroimidazo[1,2-a]pyridin-2-yl}phenol] | 23.4246
Cc1cn2c(NCc3cccc(Cl)c3)c(-c3ccccc3O)nc2c(C)n1 [2-(3-{[(3-chlorophenyl)methyl]amino}-6,8-dimethyl-4-hydroimidazo[1,2-a]pyrazin-2-yl)phenol] | 6.4593
Cc1ccn2c(NCc3cccc(Cl)c3)c(-c3ncccc3O)nc2c1 [2-(3-{[(3-chlorophenyl)methyl]amino}-7-methyl-4-hydroimidazo[1,2-a]pyridin-2-yl)pyridin-3-ol] | 36.9847
Cc1ccc2nc(-c3ccc(O)cc3)c(NC3CCCC3)n2c1 [4-[3-(cyclopentylamino)-6-methyl-4-hydroimidazo[1,2-a]pyridin-2-yl]phenol] | 13.5754
Oc1ccc(-c2nc3ccccn3c2NCc2cccc(F)c2)cc1 [4-(3-{[(3-fluorophenyl)methyl]amino}-4-hydroimidazo[1,2-a]pyridin-2-yl)phenol] | 28.3763
Fc1ccc(-c2nc3ccccn3c2NC2CCCCC2)cc1 [cyclohexyl[2-(4-fluorophenyl)(4-hydroimidazo[1,2-a]pyridin-3-yl)]amine] | 9.155
Oc1ccccc1-c1nc2ccc(Br)cn2c1NCc1cccc(Cl)c1 [2-(6-bromo-3-{[(3-chlorophenyl)methyl]amino}-4-hydroimidazo[1,2-a]pyridin-2-yl)phenol] | 5.3855
N#Cc1ccn2c(NCc3ccc(F)cc3)c(-c3ccc(O)cc3)nc2c1 [3-{[(4-fluorophenyl)methyl]amino}-2-(4-hydroxyphenyl)-4-hydroimidazo[1,2-a]pyridine-7-carbonitrile] | 19.6705
Oc1ccc(-c2nc3ccc(Br)cn3c2NC2CCCCC2)cc1 [4-[6-bromo-3-(cyclohexylamino)-4-hydroimidazo[1,2-a]pyridin-2-yl]phenol] | 12.8016
COC(=O)c1ccn2c(NCc3cccc(Cl)c3)c(-c3ccccc3O)nc2c1 [methyl 3-{[(3-chlorophenyl)methyl]amino}-2-(2-hydroxyphenyl)-4-hydroimidazo[1,2-a]pyridine-7-carboxylate] | 5.1088
Oc1ccccc1-c1nc2c(Br)cccn2c1NCc1cccc(Cl)c1 [2-(8-bromo-3-{[(3-chlorophenyl)methyl]amino}-4-hydroimidazo[1,2-a]pyridin-2-yl)phenol] | 13.2238
NC(=O)c1ccc2nc(-c3ccccc3O)c(NCc3ccc(F)cc3)n2c1 [3-{[(4-fluorophenyl)methyl]amino}-2-(2-hydroxyphenyl)-4-hydroimidazo[1,2-a]pyridine-6-carboxamide] | 2.0079
Cc1ccn2c(NCc3ccc(Cl)cc3)c(-c3ccccc3O)nc2c1 [2-(3-{[(4-chlorophenyl)methyl]amino}-7-methyl-4-hydroimidazo[1,2-a]pyridin-2-yl)phenol] | 3.3207
